Data set [1] relates to Cooperia curticei. Description: microbe, parasite or virus in culture. The settings on record: 120 h, read-out: activity (larval mortality). The protocol:
Cooperia curticei-Test (COOPCU)
(§1) Solvent: dimethyl sulfoxide
(§2) To produce a suitable preparation of active compound, 10 mg of active compound are dissolved in 0.5 ml solvent, and the concentrate is diluted with “Ringer's solution” to the desired concentration.
Approximately 40 nematode larvae (Cooperia curticei) are transferred into a test tube containing the compound solution.
After 5 days percentage of larval mortality is recorded, 100% efficacy means all larvae are killed; 0% efficacy means no larvae are killed.

The subject of data set [2] is Haemonchus contortus. The data set is described as follows: Haemonchus contortus-Test (HAEMCO), larval mortality. To be noted: 120 h, read-out: activity (larval mortality). The protocol:
Haemonchus contortus-Test (HAEMCO)
as §1, §2
Approximately 40 larvae of the red stomach worm (Haemonchus contortus) are transferred into a test tube containing compound solution.
After 5 days percentage of larval mortality are recorded, 100% efficacy means all larvae are killed, 0% efficacy means no larvae are killed.

Data set [3] in a line: logP. To be noted: for chromatographic logP: HCOOH (formic acid).
For data set [4], the system named is Nippostrongylus brasiliensis. The data set is described as follows: Nippostrongylus brasiliensis-Test (NIPOBR), in vitro efficacy, acetylcholine esterase readout. To be noted: 10 μg/ml, read-out: activity (reduction of AChe compared to negative control). The protocol:
Nippostrongylus brasiliensis-Test (NIPOBR) (In Vitro Efficacy Test)
Adult Nippostrongylus brasiliensis were washed with saline buffer containing 100 U/ml penicillin, 0.1 mg/ml streptomycin and 2.5 μg/ml amphotericin B. Test compounds were dissolved in DMSO, and worms were incubated in medium in a final concentration of 10 μg/ml. An aliquot of the medium was used to determine the acetylcholine esterase activity in comparison to a negative control. The principle of measuring acetylcholine esterase as readout for anthelmintic activity was described in Rapson et al (1986) and Rapson et al (1987).

The nature of data set [5]: physchem.
Data set [6] relates to Meloidogyne incognita. The data set is described as follows: Meloidogyne incognita-Test, gall formation on salad seedlings. The format is in vivo. The settings on record: 336 h, read-out: nematicidal activity (on the basis of gall formation). The protocol:
Meloidogyne incognita-Test
Solvent: 125.0 parts by weight of acetone
To produce a suitable preparation of active compound, 1 part by weight of active compound is mixed with the stated amount of solvent, and the concentrate is diluted with water to the desired concentration.
Vessels are filled with sand, a solution of the active ingredient, a suspension containing eggs and larvae of the southern root-knot nematode (Meloidogyne incognita) and salad seeds. The salad seeds germinate and the seedlings grow. Galls develop in the roots.
After 14 days the nematicidal activity is determined on the basis of the percentage of gall formation. 100% means no galls were found and 0% means the number of galls found on the roots of the treated plants was equal to that in untreated control plants.

Read-outs that look alike come from different tables or passages of the source.

The text below walks through data of patent US9868719B2, “Compounds with pesticidal activity” (BAYER CROPSCIENCE AKTIENGESELLSCHAFT, priority 2013, dated 2018).

What is called mortality is the share of the test organisms that died. One may read the chromatographic logP as lipophilicity estimated from chromatographic retention. The logP is the decadic logarithm of the partition coefficient of the neutral form, usually between octanol and water.

As for `O=C(NCCc1ncc(-n2ccnc2)cc1Cl)c1ccccc1C(F)(F)F` [Example 1], the mortality at 20 ppm came out at 100% in data set [1] (20 ppm, after 5 days) and 80% in data set [2] (20 ppm, after 5 days). The chromatographic logP in data set [3] came to 1.21.
Turning to `O=C(NCCc1ncc(-n2cc(C(F)(F)F)cn2)cc1Cl)c1ccccc1C(F)(F)F` [Example 2], in data set [4], the inhibition at 10 µg/mL is at least 60%. In data set [5], this molecule showed a chromatographic logP of 3.65. Further, the mortality at 20 ppm in data set [1] and in data set [2] was 100% in each case. The pest or weed control at 20 ppm in data set [6] turned out to be 1%.
For the molecule `O=C(NCCc1ncc(-n2ccc(C(F)(F)F)n2)cc1Cl)c1ccccc1C(F)(F)F` [Example 3], the inhibition at 10 µg/mL in data set [4] is at least 60%. This molecule showed a chromatographic logP in data set [5] of 3.68. Moreover, the mortality at 20 ppm in data set [1] and in data set [2] was 100% each time. For the same molecule, the pest or weed control at 20 ppm in data set [6] is 1%.
As for `O=C(NCCc1ncc(-n2cccn2)cc1Cl)c1ccccc1C(F)(F)F` [Example 4, N-{2-[3-chloro-5-(1H-pyrazol-1-yl)pyridin-2-yl]ethyl}-2-(trifluoromethyl)benzamide], the inhibition at 10 µg/mL in data set [4] was at least 60%. The molecule also displayed a chromatographic logP in data set [5] of 2.69. The mortality at 20 ppm in data set [1] and in data set [2] was 100% in each case. Further, the pest or weed control at 20 ppm in data set [6] was 1%.
Turning to `O=C(NCCc1ncc(-n2cncn2)cc1Cl)c1ccccc1C(F)(F)F` [Example 5], the pest or weed control at 20 ppm in data set [6] (20 ppm, after 14 days) was determined as 1%. In addition, the mortality at 20 ppm in data set [2] amounted to 90%. The chromatographic logP in data set [3] stood at 2.06.
In the case of `O=C(NCCc1ncc(-c2ccc(Cl)nc2)cc1Cl)c1ccccc1C(F)(F)F` [Example 6], the mortality at 20 ppm in data set [1] and in data set [2] was 100% each time. In addition, the pest or weed control at 20 ppm in data set [6] (20 ppm, after 14 days) was determined as 1%. The same molecule yielded a chromatographic logP in data set [3] of 3.
With `O=C(NCCc1ncc(-c2ccc(C(F)(F)F)nc2)cc1Cl)c1ccccc1C(F)(F)F` [Example 7, N-{2-[5-chloro-6′-(trifluoromethyl)-3,3′-bipyridin-6-yl]ethyl}-2-(trifluoromethyl) benzamide], the mortality at 20 ppm in data set [1] was 100%; in data set [2] it was 90%. Besides, the pest or weed control at 20 ppm in data set [6] (20 ppm, after 14 days) was 90%. Also, in data set [3], the chromatographic logP worked out at 3.29.
With `O=C(NCC(F)(F)c1ncc(-c2ccoc2)cc1Cl)c1ccccc1C(F)(F)F` [Example 8], in data set [1], the mortality at 20 ppm stood at 100%.
`Cc1occc1-c1cnc(C(F)(F)CNC(=O)c2ccccc2C(F)(F)F)c(Cl)c1` [Example 9]: the figures for the mortality at 20 ppm in data set [1] and in data set [2] were 100% and 90%, respectively.
For `O=C(NCC(F)(F)c1ncc(-c2cncc(F)c2)cc1Cl)c1ccccc1C(F)(F)F` [Example 10], the inhibition at 10 µg/mL in data set [4] is at least 60%. In addition, in data set [5], the chromatographic logP was 2.84. The mortality at 20 ppm in data set [1] and in data set [2] was 100% throughout. Besides, the pest or weed control at 20 ppm in data set [6] came to 1%.
Consider `O=C(NCC(F)(F)c1ncc(-c2ccc(C(F)(F)F)nc2)cc1Cl)c1ccccc1C(F)(F)F` [Example 11, N-{2-[5-chloro-6′-(trifluoromethyl)-3,3′-bipyridin-6-yl]-2,2-difluoroethyl}-2-(trifluoromethyl) benzamide], for which the mortality at 20 ppm in data set [1] was determined as 100%; in data set [2], 90%. The molecule further had a chromatographic logP in data set [3] of 3.42.
`O=C(NCC(F)(F)c1ncc(-c2ccc(Cl)nc2)cc1Cl)c1ccccc1C(F)(F)F` [Example 12]: the mortality at 20 ppm amounted to 100% in data set [1] and 90% in data set [2]. In addition, the pest or weed control at 20 ppm in data set [6] (20 ppm, after 14 days) worked out at 90%. In data set [3], the chromatographic logP came to 3.21.
`Cc1ncccc1-c1cnc(C(F)(F)CNC(=O)c2ccccc2C(F)(F)F)c(Cl)c1` [Example 13]: the mortality at 20 ppm in data set [1] (20 ppm, after 5 days) is 90%. Also, the pest or weed control at 20 ppm in data set [6] (20 ppm, after 14 days) was 90%. For the same molecule, the chromatographic logP in data set [3] amounted to 1.86.
Take `O=C(NCC(F)(F)c1ncc(-c2cccnc2Cl)cc1Cl)c1ccccc1C(F)(F)F` [Example 14]: the inhibition at 10 µg/mL in data set [4] was at least 60%. In data set [5], this molecule displayed a chromatographic logP of 3. For the same molecule, the mortality at 20 ppm in data set [1] and in data set [2] was 100% in each case. In data set [6], the pest or weed control at 20 ppm amounted to 1%.
With `CC(C)Oc1ccc(-c2cnc(C(F)(F)CNC(=O)c3ccccc3C(F)(F)F)c(Cl)c2)cn1` [Example 17], the results for the mortality at 20 ppm in data set [1] and in data set [2] were 100% and 90%, respectively. For the same molecule, the chromatographic logP in data set [3] was 4.15.
On to `O=C(NCC(F)(F)c1ncc(-c2ccc(Cl)nc2Cl)cc1Cl)c1ccccc1C(F)(F)F` [Example 18], for which the mortality at 20 ppm in data set [1] was 100%; in data set [2], 80%. The pest or weed control at 20 ppm in data set [6] (20 ppm, after 14 days) worked out at 1%. The molecule also registered a chromatographic logP in data set [3] of 3.68.
Take `O=C(NCC(F)(F)c1ncc(-c2cccnc2)cc1Cl)c1ccccc1C(F)(F)F` [Example 19]: the inhibition at 10 µg/mL in data set [4] was at least 60%. Also, the chromatographic logP in data set [5] came out at 2.27. The mortality at 20 ppm in data set [1] and in data set [2] was 100% each time.
For the molecule `O=C(NCC(F)(F)c1ncc(-c2ccc(OCC(F)(F)F)nc2)cc1Cl)c1ccccc1C(F)(F)F` [Example 20], the mortality at 20 ppm in data set [1] and in data set [2] was 100% in each case. In addition, the pest or weed control at 20 ppm in data set [6] (20 ppm, after 14 days) is 90%. This molecule showed a chromatographic logP in data set [3] of 3.94.
On to `O=C(NCC(F)(F)c1ncc(-c2cnccc2Cl)cc1Cl)c1ccccc1C(F)(F)F` [Example 21], for which, in data set [1], the mortality at 20 ppm came out at 80%. In data set [3], this molecule came in with a chromatographic logP of 2.88.
With `O=C(NCC(F)(F)c1ncc(-c2ccncc2)cc1Cl)c1ccccc1C(F)(F)F` [Example 22], the mortality at 20 ppm in data set [1] was 100%; in data set [2] it was 90%. Further, the chromatographic logP in data set [3] is 2.
Take `O=C(NCC(F)(F)c1ncc(-c2ccnc(F)c2)cc1Cl)c1ccccc1C(F)(F)F` [Example 23]: the mortality at 20 ppm in data set [1] and in data set [2] was 100% in each case. In addition, the pest or weed control at 20 ppm in data set [6] (20 ppm, after 14 days) is 1%. The chromatographic logP in data set [3] stood at 2.96.
As to `O=C(NCC(F)(F)c1ncc(-c2ccnc(Cl)c2)cc1Cl)c1ccccc1C(F)(F)F` [Example 24], the mortality at 20 ppm in data set [1] and in data set [2] was 100% in each case. Besides, the pest or weed control at 20 ppm in data set [6] (20 ppm, after 14 days) is 1%. The chromatographic logP in data set [3] turned out to be 3.17.
As for `O=C(NCC(F)(F)c1ncc(-n2cc(C(F)(F)F)cn2)cc1Cl)c1ccccc1C(F)(F)F` [Example 28], in data set [4], the inhibition at 10 µg/mL was at least 60%. For the same molecule, the mortality at 20 ppm in data set [1] and in data set [2] was 100% throughout. Also, the pest or weed control at 20 ppm in data set [6] worked out at 1%.
On to `O=C(NCC(F)(F)c1ncc(-c2ccc(F)cn2)cc1Cl)c1cccnc1C(F)(F)F` [Example 29], for which, in data set [6] (20 ppm, after 14 days), the pest or weed control at 20 ppm was found to be 1%. In addition, the chromatographic logP in data set [3] was 2.57.
In the case of `O=C(NCC(F)(F)c1ncc(-c2ccc(F)cn2)cc1Cl)c1nccnc1C(F)(F)F` [Example 30], the chromatographic logP in data set [3] worked out at 2.75.
`CC(F)(CNC(=O)c1ccccc1C(F)(F)F)c1ncc(-c2ccc(F)nc2)cc1Cl` (centres unmarked) [Example 31]: in data set [3], the chromatographic logP was found to be 3.94.
In data set [3], `CC(F)(CNC(=O)c1cccnc1C(F)(F)F)c1ncc(-c2ccc(F)nc2)cc1Cl` (centres unmarked) [Example 32] gave a chromatographic logP of 2.66.
Still for that read-out and setting: the value for `CC(F)(CNC(=O)c1ccccc1C(F)(F)F)c1ncc(-c2ccc(Cl)nc2)cc1Cl` (centres unmarked) [Example 33] was 3.26.
In the case of `CC(F)(CNC(=O)c1ccccc1C(F)(F)F)c1ncc(-c2ccc(C(F)(F)F)nc2)cc1Cl` (centres unmarked) [Example 35], the logP in data set [3] was determined as 3.55.
As to `CC(F)(CNC(=O)c1cccnc1C(F)(F)F)c1ncc(-c2ccc(C(F)(F)F)nc2)cc1Cl` (centres unmarked) [Example 36], the chromatographic logP in data set [3] stood at 3.17.
`Cc1ccc(-c2cnc(C(C)(F)CNC(=O)c3ccccc3C(F)(F)F)c(Cl)c2)cn1` (centres unmarked) [Example 37] came in with a chromatographic logP in data set [3] of 3.79.
Molecule `Cc1ccc(-c2cnc(C(C)(F)CNC(=O)c3cccnc3C(F)(F)F)c(Cl)c2)cn1` (centres unmarked) [Example 38] displayed a chromatographic logP in data set [3] of 1.69.
As to `CC(F)(CNC(=O)c1ccccc1C(F)(F)F)c1ncc(-c2cncc(F)c2)cc1Cl` (centres unmarked) [Example 39], the chromatographic logP in data set [3] is 2.99.
In turn, `CC(F)(CNC(=O)c1cccnc1C(F)(F)F)c1ncc(-c2cncc(F)c2)cc1Cl` (centres unmarked) [Example 40] gave a chromatographic logP in data set [3] of 2.49.
For the molecule `O=C(NCC(F)(F)c1ncc(-c2cc(F)c(F)cn2)cc1Cl)c1ccccc1C(F)(F)F` [Example 41], in data set [3], the chromatographic logP turned out to be 3.28.
Same read-out and setting: the value for `CN(C)c1ccc(-c2cnc(C(F)(F)CNC(=O)c3ccccc3C(F)(F)F)c(Cl)c2)cn1` [Example 42] was 1.97.
